For assay [1], the system named is human hepatoma HepG2 cells. Description: Growth inhibition test (MTS) on HepG2 cells. It counts as cell-based. Conditions: 72 hours, read-out: HepG2 ED50. In a few lines: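 HepG2 cells in DMEM with 10% FCS were exposed for 72 h at 37 °C, 5% CO2, to 0.1, 0.5, 1, 2.5, 5 and 10 micromol/L compound. MTS was then added for 2 h and absorbance read at 490 nm. % viability was calculated relative to untreated cells set at 100%.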

For a further assay, the target named is PIM-1 (Homo sapiens (Human), UniProt P11309). The experiment in a line: Luminometric kinase assay for PIM1 kinase (Kinase-Glo). It counts as biochemical. Conditions: 1 μM ATP, 25 min at RT. In a few lines: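 Kinase and substrate reacted in 8 mM MOPS/NaOH pH7.0, 0.2 mM EDTA, 2 mM MgCl2 with 1 μM ATP for 25 min at RT, compounds serially diluted from 1 μM. Remaining ATP read by Kinase-Glo luminescence; IC50 from variable-slope sigmoidal fit.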
On the technique in general: Kinase-Glo reads ATP consumption through a luciferase reaction.

Assay [2] relates to human colorectal adenocarcinoma SW480 cells. The experiment in a line: Growth inhibition test (MTS) on SW480 cells. It counts as cell-based. Conditions: Homo sapiens, SW480, 72 hours, read-out: SW480 ED50.
For assay [3], the system named is human prostate adenocarcinoma PC3 cells. Description: Growth inhibition test (MTS) on PC3 cells. It counts as cell-based. Conditions: Homo sapiens, PC-3, 72 hours, read-out: PC-3 ED50.
In assay [4] the test system is human chronic myelocytic leukemia K562 cells. Description: Growth inhibition test (MTS) on K562 cells. Type of assay: cell-based. Conditions: Homo sapiens, K562, 72 hours, read-out: K562 ED50. How it is done:
Ten thousand cells of human chronic myelocytic leukemia K562 were inoculated into each well of a 96-well microplate (manufactured by Corning Corp.) using Iscove's MDM medium (culture medium) containing 10% fetal calf serum (FCS). Next day, a dimethyl sulfoxide (DMSO) solution of each test compound prepared in a concentration of 10 mmol/L was further diluted with culture medium to the desired concentrations (0.1, 0.5, 1, 2.5, 5 and 10 micromol/L), and the diluted solution was added to each well. The individual wells were further cultured in 5% carbon dioxide at 37° C. for 72 hours. After completion of the culture, 10 μl MTS (3-(4,5-Dimethyl-2-thiazolyl)-5-(carboxymethoxyphenyl)-2-(4-sulfophenyl)-2H-tetrazolium, inner salt assay (CellTiter96® AQueous One Solution Cell Proliferation Assay, Promega) was added to each well, and culturing was performed in 5% carbon dioxide at 37° C. for 2 hours. Using a microplate spectrophotometer (Synergy 2 multi-mode microplate reader (BioTek)), the absorbance of each well was measured at 490 nm. The value for cells not incorporated with a test compound was designated as 100%. By comparing these values with the absorbance difference obtained at the well in which each test compound was added, the cell viability (% viability) after treatment with the test compound was calculated.

Bounds are passed on as bounds.

PIM-1, sequence (P11309 whole entry): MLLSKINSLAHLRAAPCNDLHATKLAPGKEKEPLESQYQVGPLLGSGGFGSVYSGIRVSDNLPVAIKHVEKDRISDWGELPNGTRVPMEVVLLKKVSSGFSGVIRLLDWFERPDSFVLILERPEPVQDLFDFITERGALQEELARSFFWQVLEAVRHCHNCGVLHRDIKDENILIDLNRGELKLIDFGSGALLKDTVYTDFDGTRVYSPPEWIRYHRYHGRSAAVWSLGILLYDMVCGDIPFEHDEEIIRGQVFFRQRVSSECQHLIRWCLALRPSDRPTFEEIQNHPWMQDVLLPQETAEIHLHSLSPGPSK

With `CCn1c(N2CCN(CCN3CCNCC3)CC2)nc2c(Br)c(Br)c(Br)c(Br)c21` [Compound 441, 4,5,6,7-tetrabromo-1-ethyl-2-(4-(2-(piperazin-1-yl)ethyl)piperazin-1-yl)-1H-benzo[d]imidazole], the IC50 was found to be 700 nM in assay [1]; 65 nM on PIM-1; 700 nM in assay [2]; 1600 nM in assay [3]; 1650 nM in assay [4].
Take `CCn1c(N2CCN(CCCN3CCOCC3)CC2)nc2c(Br)c(Br)c(Br)c(Br)c21` [Compound 450]: the IC50 was 1500 nM in assay [1]; 125 nM on PIM-1; 1000 nM in assay [2]; 3600 nM in assay [3]; 2900 nM in assay [4].
For the molecule `Brc1c(Br)c(Br)c2c(Br)n[nH]c2c1Br` [Compound K64, 3,4,5,6,7-pentabromo-1H-indazole, reference compound], the IC50 in assay [1] was more than 10000 nM; at PIM-1, more than 1000 nM; in assay [2] it was 9130 nM; in assay [3], more than 10000 nM; in assay [4], more than 10000 nM.
Regarding `CN(C)c1nc2c(Br)c(Br)c(Br)c(Br)c2n1CC(=O)O` [Compound K66, 1-carboxymethyl-2-dimethylamino-4,5,6,7-tetrabromo-benzimidazole, reference compound], the IC50 is more than 10000 nM in assay [1]; more than 1000 nM on PIM-1; more than 10000 nM in assay [2]; more than 10000 nM in assay [3]; more than 10000 nM in assay [4].
With `CN(C)c1nc2c(Br)c(Br)c(Br)c(Br)c2[nH]1` [DMAT, 2-dimethylamino-4,5,6,7-tetrabromo-1H-benzimidazole, reference compound], the IC50 in assay [1] was more than 10000 nM; at PIM-1, 31 nM; in assay [2], more than 10000 nM; in assay [3], more than 10000 nM; in assay [4] it was more than 10000 nM.
`Brc1c(Br)c(Br)c2[nH]nnc2c1Br` [TBB, 4,5,6,7-tetrabromo-1Hbenzotriazole, reference compound]: the IC50 was more than 10000 nM in assay [1]; more than 1000 nM at PIM-1; more than 10000 nM in assay [2]; more than 10000 nM in assay [3]; more than 10000 nM in assay [4].
Consider `Brc1c(Br)c(Br)c2[nH]cnc2c1Br` [TBI, 4,5,6,7-tetrabromo-1H-benzimidazole, reference compound], for which the IC50 was more than 10000 nM in assay [1]; 102 nM on PIM-1; 7210 nM in assay [2]; more than 10000 nM in assay [3]; more than 10000 nM in assay [4].
